Our source for the IC50 values is ChEMBL document CHEMBL1136828, “Macrocyclic inhibitors of the bacterial cell wall biosynthesis enzyme MurD” (Bioorg Med Chem Lett, 2003).

pIC50: −log10 of the molar value.

A short description of the experiment: Inhibitory activity against enzyme MurD isolated from Escherichia coli.
By pIC50 is commonly meant the IC50 on a negative log10 scale, so that one unit is a factor of ten. Turning to `C[C@@H]1NC(=O)[C@H](CO)NC(=O)CCCCCC[C@H](C(=O)O)NC1=O`, the negative-log IC50 (pIC50) is 6.15.

The molecule `C[C@@H]1NC(=O)[C@H](COC(C)(C)C)NC(=O)CCCCCC[C@H](C(=O)O)NC1=O` had a pIC50 of 5.72.

Molecule `C[C@@H]1NC(=O)CCCCCCC[C@H](C(=O)O)NC(=O)[C@H](C)NC1=O` gave a negative-log IC50 (pIC50) of 5.82. The pIC50 values of the last two molecules are within 0.2 log units of each other.

In turn, `C[C@@H]1NC(=O)CCCCCC[C@@H](C(=O)O)NC(=O)[C@H](C)NC1=O` showed a pIC50 of 5.29. Compared with the last molecule, the pIC50 is 0.53 log units lower.

Consider `C[C@@H]1NC(=O)[C@H](CO)NC(=O)CCCCCC[C@@H](C(=O)O)NC1=O`, for which the pIC50 is 5.64.

Turning to `C[C@@H]1NC(=O)[C@H](COC(C)(C)C)NC(=O)CCCCCC[C@@H](C(=O)O)NC1=O`, the negative logarithm of the IC50 (pIC50) was 5.05.

Molecule `C[C@@H]1NC(=O)CCCCCC[C@H](C(=O)O)NC(=O)[C@H](C)NC1=O` gave a negative logarithm of the IC50 (pIC50) of 5.82.

For the molecule `C[C@@H]1NC(=O)CCCCCCC[C@@H](C(=O)O)NC(=O)[C@H](C)NC1=O`, the pIC50 was 5.49.
